One assay addresses SPM-1 (Pseudomonas aeruginosa, UniProt Q8G9Q0). The assay is described as follows: MBL screening assay (IC50), SPM-1. Type of assay: biochemical. As for the experimental part: (§1) Recombinant forms of NDM-1, NDM-1 M67C, VIM-1, VIM-2, SPM-1, IMP-1 and BcII MBLs were produced in Escherichia coli as described in J. Med. Chem. 56, 6945-6953 (2013) and Makena et al Chem MechCHem 8, 1923-9 (2013). Purified VIM-2 protein was dialysed into fresh crystallization buffer (50 mM HEPES pH 7.5, 150 mM NaCl and […], concentrated to 7.5 mg/mL and used for crystallographic analyses.
(§2) Kinetic and inhibition analyses and UV-VIS studies^16 against bacterial MBLs were performed as described by Van Berkel et al in J. Med. Chem. 56, 6945-6953 (2013) and Makena et al Chem MechCHem 8, 1923-9 (2013).
(§3) The experiments were performed by using a NovaStar microplate reader (using path length correction) and were performed at r.t. (24-25° C.). All enzymes and substrates were dissolved in the assay buffer: 50 mM HEPES-NaOH buffer (pH 7.2) supplemented with 1 μg/mL BSA (to minimize the denaturation of the enzyme), 1 μM ZnSO4 and 0.01% Triton 100. Screening was carried out against a panel of MBLs including NDM-1, VIM-1, VIM-2, SPM-1 (Sao Paulo MBL-1) and IMP-1 and the non-clinically relevant model MBL Bacillus cereus (BcII).
(§4) The kinetic values determined were the means from at least three independent measurements. […] The IC50 values were determined from the plot of activity (steady state rate) versus inhibitor concentration using the same software. […]

A further assay deals with T1, IMP-1 (Serratia marcescens, UniProt P52699).
T1 construct: made in house; host or cells: Escherichia coli
Nature of the assay: MBL screening assay (IC50), IMP-1. The class given is biochemical. The procedure: as §1, §2, §3, §4

In the next assay the target is T2, hHAT (Homo sapiens, UniProt Q09472).
T2 construct: purchased Active Motif 56100
T2 sequence (Q09472 1284-1673 limits assumed): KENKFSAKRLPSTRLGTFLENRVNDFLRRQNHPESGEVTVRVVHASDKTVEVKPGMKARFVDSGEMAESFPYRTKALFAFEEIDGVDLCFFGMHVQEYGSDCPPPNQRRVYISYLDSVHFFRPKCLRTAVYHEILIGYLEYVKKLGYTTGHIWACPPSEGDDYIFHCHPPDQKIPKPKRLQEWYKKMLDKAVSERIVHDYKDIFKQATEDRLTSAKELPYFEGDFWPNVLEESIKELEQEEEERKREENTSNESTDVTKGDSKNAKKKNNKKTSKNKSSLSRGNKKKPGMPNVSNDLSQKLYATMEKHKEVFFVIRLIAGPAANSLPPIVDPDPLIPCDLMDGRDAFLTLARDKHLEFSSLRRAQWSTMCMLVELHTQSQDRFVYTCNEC
Nature of the assay: Inhibition studies hHAT (HAT Assay Kit). For Inhibition verdict: key: N.I.—not inhibited. Type of assay: biochemical. As for the experimental part:
(§5) To investigate the selectivity of ML302/ML302F for bacterial MBLs, activity was tested against TEM-1 (a Class A SBL), PBP-5 (penicillin-binding protein 5 or dacA) and PBP-6 (penicillin-binding protein 6, or dacC) from E. coli, hHAT (human histone acetyltransferase) and hHDAC (human histone deacetylase). TEM-1, PBP-5 and -6 and hHAT are known to be inhibited by rhodanines. Selectively against hACE-2 (Angiotensin converting enzyme 2) and hHAGH (Hydroxyacylglutathione hydrolase, human Glyoxylase II) was also tested.
(§6) The inhibition analyses for human histone acetyltransferases (HAT), HDAC hHDAC (human histone deacetylase), hACE-2 (Angiotensin converting enzyme 2) and hHAGH (Hydroxyacylglutathione hydrolase, human Glyoxylase II) were performed using the commercially available HAT Assay Kit (Active Motif, catalogue No. 56100 (2009)), hHDAC (Active Motif, catalogue No. 56200 (2013)), hACE-2 (ACE-2 (R&D Systems) and hHAGH ((R&D Systems).

For another assay, the target named is PBP6 (dacC) from E. coli (Escherichia coli, UniProt P08506). The assay is described as follows: Inhibition studies for penicillin binding proteins, PBP6. For Inhibition verdict: key: N.I.—not inhibited. Type of assay: biochemical. The note with it: for Inhibition verdict: 100 μM; for remaining activity at 100 µM: read-out: RA (residual activity). The procedure: as §5
(§7) The inhibition analyses were performed using the method previously described for PBP-3 (van Berkel, S. S. et al. Binding of (5 S)-penicilloic acid to penicillin binding protein 3.ACS Chem. Biol. 8, 2112-2116 (2013)). In brief: ML302 and ML302F were initially screened at a single concentration (100 μM) in duplicate. Inhibition of the PBP acylation rate by the chromogenic β-lactam Nitrocefin was determined by pre-incubation of the appropriate amount of enzyme (dacA 2 μM and dacC 6.8 μM, respectively) and inhibitor in the assay buffer (50 mM HEPES-NaOH buffer (pH 7.2) supplemented with 200 mM NaCl and 0.01% Triton 100) for 10 min. at r.t. prior to the initiation of the assay by the addition of nitrocefin (100 μM final concentration). The hydrolysis of Nitrocefin was monitored by following the variation in absorbance at 492 nm using 96 well flat bottom plates (UV-STAR Microplate (655801) or Greiner Bio-One). The experiments were performed using a PHERAstar FS—BMG Labtech microplate reader (using path length correction) at r.t. (24-25° C.). All enzymes and inhibitors were prepared in the assay buffer.

A further assay concerns the target PBP5 (dacA) from E. coli (Escherichia coli, UniProt P0AEB2). The assay is described as follows: Inhibition studies for penicillin binding proteins, PBP5. For Inhibition verdict: key: N.I.—not inhibited. The class given is biochemical. The following applies: for remaining activity at 100 µM: read-out: RA (residual activity). As for the experimental part: as §5, §7
Another assay has as its system hHDAC. The assay is described as follows: Inhibition studies hHDAC. For Inhibition verdict: key: N.I.—not inhibited. Type of assay: biochemical, human. The procedure: as §5, §6
In another assay the target is T3, NDM-1 (Klebsiella pneumoniae, UniProt C7C422).
T3 construct: made in house; host or cells: Escherichia coli
Nature of the assay: biochemical. The procedure:
as §1, §2, §3, §4

As usually defined, the IC50 is the concentration at which inhibition is half-maximal. The low end stands for greater potency, the high end for weaker potency. Turning to `CN1CCN(NC(=O)CN2C(=O)C(=Cc3c(Cl)ccc(Cl)c3Cl)SC2=S)CC1` (mixture of isomers) [ML302, N-(4-Methylpiperazin-1-yl)-2-(4-oxo-2-thioxo-5-(2,3,6-trichlorobenzylidene)thiazolidin-3-yl)acetamide], the IC50 on SPM-1 was 1.32 ± 0.62 µM; against IMP-1 it was 0.175 ± 0.06 µM; against NDM-1, 9.44 ± 1.44 µM. Further, the Inhibition verdict entry at hHAT, at PBP6 (dacC) from E. coli and with hHDAC was “N.I” each time. Besides, the “RA (residual activity)” value at hHAT is 93 ± 15%; with hHDAC, 108 ± 3%. Moreover, the results for the remaining activity at 100 µM at PBP6 (dacC) from E. coli and at PBP5 (dacA) from E. coli were 97.7 ± 3.8% and 105 ± 5.7%, respectively.

In the case of `O=C(O)C(S)=Cc1c(Cl)ccc(Cl)c1Cl` (racemic) [ML302F, 2-Mercapto-3-(2,3,6-trichlorophenyl)acrylic acid], the IC50 was 1.76 ± 0.51 µM against SPM-1, 0.00288 µM at IMP-1 and 1.05 ± 0.3 µM against NDM-1. Moreover, the Inhibition verdict entry on hHAT, on PBP6 (dacC) from E. coli, at PBP5 (dacA) from E. coli (100 μM) and in the assay with hHDAC was “N.I” each time. Further, the figures for the “RA (residual activity)” value on hHAT and with hHDAC were 85 ± 9% and 116 ± 7%, respectively. The remaining activity at 100 µM worked out at 114% at PBP6 (dacC) from E. coli and 99.2 ± 6.4% on PBP5 (dacA) from E. coli.
